Experimental data from US20230131025A1, “QUINOLYL PHOSPHINE OXIDE COMPOUND, AND COMPOSITION AND APPLICATION THEREOF” (Betta Pharmaceuticals Co., Ltd., priority 2020, published 2023).

Legend:
EGFR WT = EGFR WT (Homo sapiens, UniProt P00533); experiment: Kinase inhibition assay (mobility shift); type: biochemical
Description: (§1) Experiment 1 Kinase Inhibition Assay Mobility shift assays were performed to determine inhibitory activity of compounds against EGFR^Δ19del/T790M/C797S, EGFR WT and IGF1R kinases. The enzymatic reaction scheme is as follows:
(§2) 1. Preparing 1*Kinase Buffer as follows:
(§3) 2. Preparing compound concentration gradient: the initial concentration of the compound tested in the assay was 3,000 nM or 100 nM, which is then diluted to be 100-fold final concentration in 100% DMSO in a 384-source plate. Compounds in 10 concentrations were diluted in a 3-fold gradient with Precision. 250 nL of compound in 100-fold final concentration was transferred to OptiPlate-384F plate by using a dispenser named Echo 550.
(§4) 3. Preparing kinase solution at 2.5-fold the final concentration with 1×kinase buffer.
(§5) 4. Adding 10 μL of kinase solution at 2.5-fold the final concentration to compound wells and positive control wells respectively; and adding 10 μL of 1×kinase buffer to negative control wells.
(§6) 5. Centrifuging the wells at 1,000 rpm for 30 seconds, mixing the reaction plate well by shaking and incubating it at room temperature for 10 minutes.
(§7) 6. Preparing a mixed solution of ATP and kinase substrate at 5-fold/3-fold the final concentration with 1×Kinase buffer, respectively.
(§8) 7. Initiating the reaction by adding 15 μL of the mixed solution of ATP and kinase substrate at 5-fold/3-fold the final concentration.
(§9) 8. Centrifuging the 384-well plate at 1,000 rpm for 30 seconds, mixing the reaction plate well by shaking and incubating it at room temperature for a corresponding time.
(§10) 9. Adding 30 μL of assay stop solution to stop the kinase reaction, and centrifuging the plate at 1,000 rpm for 30 seconds and mixing it well by shaking.
(§11) 10. Reading the conversion rate with Caliper EZ Reader.
(§12) [formula] • wherein, “Conversion % sample” is the conversion rate reading of the sample;
(§13) “Conversion %_min” is the mean value of the negative control wells, representing the conversion rate readings of the well without enzymatic activity; “Conversion %_max” is the mean value of the positive control wells, representing the conversion rate readings of the wells without compound inhibition. • Dose-response curve is plotted with the logarithmic concentration on the X-axis and percent inhibition on the Y-axis. The fitting of the dose-response curve is made with the module “log(inhibitor) vs. response—Variable slope” of the analysis software GraphPad Prism 5, so that the IC50 value of each compound on enzymatic activity is obtained. • The calculation formula is: Y=Bottom+(Top−Bottom)/(1+10^((Log IC50−X)*HillSlope)).

EGFR Δ19del/T790M/C797S = EGFR Δ19del/T790M/C797S (Homo sapiens, UniProt P00533, T790M/C797S, form not given); experiment: Kinase inhibition assay (mobility shift); type: biochemical
Description: as §1, §2, §3, §4, §5, §6, §7, §8, §9, §10, §11, §12, §13

IGF1R = IGF1R (Homo sapiens, UniProt P08069); experiment: Kinase inhibition assay (mobility shift); type: biochemical
Description: as §1, §2, §3, §4, §5, §6, §7, §8, §9, §10, §11, §12, §13

Ba/F3 EGFR WT = Ba/F3 EGFR WT (Homo sapiens, UniProt P00533); experiment: Cell proliferation experiment (CellTiter Glo, 72 hours); type: cell-based; conditions: read-out: BaF3 EGFR WT IC50
Description: (§14) Experiment 2 Cell Proliferation Experiment
(§15) Suspension cells: Ba/F3 cells with stable overexpression of Δ19del/T790M/C797S mutant gene, named Ba/F3-Δ19del/T790M/C797S; Ba/F3 cells with overexpression of EGFR WT, named Ba/F3 EGFR WT.
(§16) RPMI 1640 with 10% FBS and 1% Penicillin-Streptomycin, or DMEM with 10% FBS and 1% Penicillin-Streptomycin.
(§17) a) Diluting compounds being tested (20 mM stock solutions), as an initial concentration, to 10 mM with 100% DMSO, followed by diluting compounds serially in a 3-fold gradient such that each compound is diluted into 12 concentrations (Cat #P-05525, Labcyte).
(§18) b) Diluting the above compound solutions for 100-fold with culture medium to prepare 10-fold working solution.
(§19) b) Seeding cells into 96-well cell culture plate at a density of 2000 or 3000 cells/well, with 135 μL/well.
(§20) a) Adding the compound prepared in step 2 to the cell plate at 15 μL per well, resulting in a final maximum concentration of 10000 nM or 1111 nM. The compounds is diluted serially in a 3-fold gradient such that each compound is diluted into 9 concentrations, wherein the final concentration of DMSO is 0.1%. Blank control wells are added with medium (0.1% DMSO).
(§21) b) Re-incubating the cells in an incubator for 72 hours. 5. Detection
(§22) a) Adding 50 μL of CTG reagent (CellTiter Glo kit, promega, Cat #G7573) to the 96-well cell culture plate.
(§23) b) Shaking the plate for 2 minutes and reacting at room temperature for 10 minutes.
(§24) c) Reading the luminescence signal value (Lum) using PerkinElmer reader.
(§25) The cell survival inhibition rate of each well was calculated. The data was analyzed by GraphPad Prism 6.0 software. The dose-response curve was obtained by fitting the data with a nonlinear regression equation. The IC50 of each compound was calculated as follows:
(§26) Cell survival inhibition rate (%)=(1−(Lumcompound tested−Lummedium control)/(Lumcell control−Lummedium control))×100%
(§27) Y=Min+(Max−Min)/(1+10^((Log IC50−X)*Slope));
(§28) X: logarithm of compound concentration. Y: cell survival inhibition rate.

Ba/F3-Δ19del/T790M/C797S = Ba/F3-Δ19del/T790M/C797S (Homo sapiens, UniProt P00533, T790M/C797S, cells depend on it, form not given); experiment: as above; type: cell-based; conditions: read-out: Ba/F3/EGFR Δ19del/T790M/C797S IC50
Description: as §14, §15, §16, §17, §18, §19, §20, §21, §22, §23, §24, §25, §26, §27, §28

[1] = system: human epidermal cancer cells A431 carrying EGFR WT; experiment: as above; type: cell-based; conditions: Homo sapiens, A-431
Description: as §14
Adherent cells: human epidermal cancer cells A431 carrying EGFR WT.
as §16, §17, §18, §19, §20, §21, §22, §23, §24, §25, §26, §27, §28

Sequence of Ba/F3 EGFR WT (P00533 whole entry, change not shown): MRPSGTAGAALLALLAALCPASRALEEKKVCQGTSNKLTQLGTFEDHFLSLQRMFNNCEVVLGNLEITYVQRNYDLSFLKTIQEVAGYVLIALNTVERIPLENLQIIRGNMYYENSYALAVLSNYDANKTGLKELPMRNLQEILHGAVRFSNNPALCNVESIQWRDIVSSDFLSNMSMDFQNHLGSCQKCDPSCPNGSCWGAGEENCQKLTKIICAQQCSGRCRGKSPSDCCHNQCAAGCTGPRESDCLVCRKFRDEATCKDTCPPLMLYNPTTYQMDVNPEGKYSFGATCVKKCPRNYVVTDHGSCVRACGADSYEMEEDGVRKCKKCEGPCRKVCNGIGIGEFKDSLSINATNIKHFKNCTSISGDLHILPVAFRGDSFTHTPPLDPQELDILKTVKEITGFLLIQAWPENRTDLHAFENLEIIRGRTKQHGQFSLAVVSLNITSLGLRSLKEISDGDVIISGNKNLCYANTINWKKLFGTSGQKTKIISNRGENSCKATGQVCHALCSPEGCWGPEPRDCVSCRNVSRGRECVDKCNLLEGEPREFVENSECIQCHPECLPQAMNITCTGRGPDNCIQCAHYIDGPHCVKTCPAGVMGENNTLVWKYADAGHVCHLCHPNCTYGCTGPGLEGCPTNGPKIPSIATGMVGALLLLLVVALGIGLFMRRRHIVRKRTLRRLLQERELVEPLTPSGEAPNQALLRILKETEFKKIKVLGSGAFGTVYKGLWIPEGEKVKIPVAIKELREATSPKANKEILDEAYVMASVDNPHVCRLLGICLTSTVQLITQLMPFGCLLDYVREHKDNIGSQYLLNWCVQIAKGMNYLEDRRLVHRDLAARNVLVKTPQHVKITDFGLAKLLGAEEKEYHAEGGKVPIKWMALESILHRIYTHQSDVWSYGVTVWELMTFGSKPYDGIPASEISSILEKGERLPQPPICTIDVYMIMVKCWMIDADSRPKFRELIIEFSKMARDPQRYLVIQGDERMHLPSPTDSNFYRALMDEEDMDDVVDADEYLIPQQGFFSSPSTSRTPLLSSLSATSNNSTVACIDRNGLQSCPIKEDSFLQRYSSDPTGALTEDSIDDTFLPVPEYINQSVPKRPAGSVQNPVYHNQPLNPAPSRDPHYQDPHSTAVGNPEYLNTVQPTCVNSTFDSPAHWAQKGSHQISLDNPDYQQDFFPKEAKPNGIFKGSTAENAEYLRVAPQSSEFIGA
Sequence of IGF1R (P08069 31-1367, species assumed): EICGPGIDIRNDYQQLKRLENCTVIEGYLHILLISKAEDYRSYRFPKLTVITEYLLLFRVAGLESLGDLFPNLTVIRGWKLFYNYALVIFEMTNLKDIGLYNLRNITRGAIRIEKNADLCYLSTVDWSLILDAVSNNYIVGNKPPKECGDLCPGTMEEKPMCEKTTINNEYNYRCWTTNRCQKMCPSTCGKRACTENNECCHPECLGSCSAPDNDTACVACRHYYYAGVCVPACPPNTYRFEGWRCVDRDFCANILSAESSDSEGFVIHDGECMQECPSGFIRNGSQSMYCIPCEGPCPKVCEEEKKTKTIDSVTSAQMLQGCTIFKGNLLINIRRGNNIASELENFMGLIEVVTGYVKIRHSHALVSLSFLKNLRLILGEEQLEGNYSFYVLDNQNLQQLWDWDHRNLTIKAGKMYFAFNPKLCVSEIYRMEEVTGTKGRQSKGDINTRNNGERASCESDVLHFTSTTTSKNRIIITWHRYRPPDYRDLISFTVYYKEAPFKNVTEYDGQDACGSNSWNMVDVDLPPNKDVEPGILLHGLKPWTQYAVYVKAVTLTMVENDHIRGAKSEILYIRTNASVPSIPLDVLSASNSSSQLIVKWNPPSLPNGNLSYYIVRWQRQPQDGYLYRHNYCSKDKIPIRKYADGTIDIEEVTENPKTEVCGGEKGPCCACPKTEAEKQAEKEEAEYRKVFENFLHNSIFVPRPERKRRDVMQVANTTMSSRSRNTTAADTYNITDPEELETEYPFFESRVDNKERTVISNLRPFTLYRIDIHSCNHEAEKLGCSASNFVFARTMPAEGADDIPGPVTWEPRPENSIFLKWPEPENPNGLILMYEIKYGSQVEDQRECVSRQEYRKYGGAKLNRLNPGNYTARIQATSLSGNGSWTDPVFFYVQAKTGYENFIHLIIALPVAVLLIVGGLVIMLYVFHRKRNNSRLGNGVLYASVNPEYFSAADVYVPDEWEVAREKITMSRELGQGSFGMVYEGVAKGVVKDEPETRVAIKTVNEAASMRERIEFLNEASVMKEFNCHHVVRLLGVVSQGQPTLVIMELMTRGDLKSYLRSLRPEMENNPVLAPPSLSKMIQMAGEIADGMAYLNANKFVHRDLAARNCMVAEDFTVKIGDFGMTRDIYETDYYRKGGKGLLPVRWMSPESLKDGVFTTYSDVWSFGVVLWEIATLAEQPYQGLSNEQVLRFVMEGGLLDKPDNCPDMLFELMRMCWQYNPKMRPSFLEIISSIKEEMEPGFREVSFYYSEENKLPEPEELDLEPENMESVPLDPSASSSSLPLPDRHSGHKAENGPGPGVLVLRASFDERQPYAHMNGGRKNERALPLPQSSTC
Sequence of EGFR WT (P00533 25-1210): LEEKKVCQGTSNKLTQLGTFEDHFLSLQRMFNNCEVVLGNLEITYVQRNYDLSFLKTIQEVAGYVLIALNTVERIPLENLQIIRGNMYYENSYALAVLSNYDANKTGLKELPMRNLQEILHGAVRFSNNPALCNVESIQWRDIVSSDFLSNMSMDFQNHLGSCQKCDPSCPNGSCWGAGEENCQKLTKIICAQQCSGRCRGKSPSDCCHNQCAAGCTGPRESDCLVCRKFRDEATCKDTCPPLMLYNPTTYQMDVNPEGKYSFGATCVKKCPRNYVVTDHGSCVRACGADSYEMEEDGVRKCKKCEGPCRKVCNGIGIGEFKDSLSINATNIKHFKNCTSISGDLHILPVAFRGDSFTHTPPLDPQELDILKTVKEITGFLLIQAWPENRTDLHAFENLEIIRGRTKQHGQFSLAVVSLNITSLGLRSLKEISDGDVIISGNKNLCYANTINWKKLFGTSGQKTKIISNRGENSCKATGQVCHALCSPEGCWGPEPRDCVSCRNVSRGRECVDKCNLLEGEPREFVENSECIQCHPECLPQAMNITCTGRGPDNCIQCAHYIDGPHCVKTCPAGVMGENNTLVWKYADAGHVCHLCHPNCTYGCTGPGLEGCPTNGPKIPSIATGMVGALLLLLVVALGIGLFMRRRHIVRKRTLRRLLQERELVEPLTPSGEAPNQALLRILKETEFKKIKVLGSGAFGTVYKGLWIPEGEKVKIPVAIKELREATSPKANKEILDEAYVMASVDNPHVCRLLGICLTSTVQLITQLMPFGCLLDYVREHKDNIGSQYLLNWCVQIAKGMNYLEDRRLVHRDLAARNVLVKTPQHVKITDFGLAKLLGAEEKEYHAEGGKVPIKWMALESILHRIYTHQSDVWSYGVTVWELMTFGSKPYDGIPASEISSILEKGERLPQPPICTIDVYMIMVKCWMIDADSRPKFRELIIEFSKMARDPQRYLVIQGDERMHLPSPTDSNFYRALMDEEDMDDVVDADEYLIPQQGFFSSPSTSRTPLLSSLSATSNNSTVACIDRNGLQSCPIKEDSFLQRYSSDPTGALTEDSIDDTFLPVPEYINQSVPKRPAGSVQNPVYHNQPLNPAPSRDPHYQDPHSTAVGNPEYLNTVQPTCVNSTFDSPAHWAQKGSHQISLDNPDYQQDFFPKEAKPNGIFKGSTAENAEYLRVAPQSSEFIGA
Sequence of Ba/F3-Δ19del/T790M/C797S (P00533 with tags, fused parts or gaps DEL746-750/T790M/C797S, form open): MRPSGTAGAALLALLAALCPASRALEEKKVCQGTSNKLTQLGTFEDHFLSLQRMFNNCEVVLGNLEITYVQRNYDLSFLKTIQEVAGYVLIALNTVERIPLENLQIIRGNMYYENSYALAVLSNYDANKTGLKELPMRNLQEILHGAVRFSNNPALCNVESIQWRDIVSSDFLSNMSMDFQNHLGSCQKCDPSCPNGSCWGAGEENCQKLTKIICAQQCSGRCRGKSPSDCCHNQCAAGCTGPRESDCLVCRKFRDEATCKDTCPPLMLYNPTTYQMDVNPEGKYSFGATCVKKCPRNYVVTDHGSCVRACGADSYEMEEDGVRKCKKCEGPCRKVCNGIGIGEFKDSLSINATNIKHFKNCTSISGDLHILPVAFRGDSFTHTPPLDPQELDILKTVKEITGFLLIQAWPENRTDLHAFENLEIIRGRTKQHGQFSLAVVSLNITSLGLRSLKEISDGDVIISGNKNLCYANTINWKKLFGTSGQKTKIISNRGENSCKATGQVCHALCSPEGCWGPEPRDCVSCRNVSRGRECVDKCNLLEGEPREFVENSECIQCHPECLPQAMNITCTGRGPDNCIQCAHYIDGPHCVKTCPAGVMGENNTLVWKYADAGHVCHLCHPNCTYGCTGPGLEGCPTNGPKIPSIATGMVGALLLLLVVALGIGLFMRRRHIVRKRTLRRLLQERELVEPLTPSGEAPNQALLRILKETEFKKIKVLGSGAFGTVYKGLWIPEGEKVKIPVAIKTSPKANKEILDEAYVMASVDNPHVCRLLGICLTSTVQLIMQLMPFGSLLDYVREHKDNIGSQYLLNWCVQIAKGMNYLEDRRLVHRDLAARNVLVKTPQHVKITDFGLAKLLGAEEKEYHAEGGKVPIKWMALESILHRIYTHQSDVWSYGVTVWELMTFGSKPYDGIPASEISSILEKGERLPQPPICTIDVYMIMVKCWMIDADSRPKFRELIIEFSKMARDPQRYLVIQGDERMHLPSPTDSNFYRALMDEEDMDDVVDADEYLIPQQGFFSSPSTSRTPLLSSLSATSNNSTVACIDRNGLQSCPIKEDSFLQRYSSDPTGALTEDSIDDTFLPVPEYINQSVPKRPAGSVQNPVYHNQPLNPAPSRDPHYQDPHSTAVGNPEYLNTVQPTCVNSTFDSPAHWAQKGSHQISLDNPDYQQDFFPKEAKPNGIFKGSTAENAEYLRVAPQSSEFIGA

Row | Structure (SMILES) | IC50 (EGFR WT) [nM] | IC50 (EGFR Δ19del/T790M/C797S) [nM] | IC50 (IGF1R) [nM] | GI50 (Ba/F3 EGFR WT) [nM] | GI50 (Ba/F3-Δ19del/T790M/C797S) [nM] | IC50 [1] [nM]
1 | COc1cc(N2CCOCC2)c(C#N)cc1Nc1ncc(Br)c(Nc2ccc3nc(C4CC4)ccc3c2P(C)(C)=O)n1 [Compound J-002, 5-((5-Bromo-4-((2-cyclopropyl-5-(dimethylphosphineoxide)quinolin-6-yl)amino)pyrimidin-2-yl)amino)-4-methoxy-2-morpholinebenzonitrile] | 62.8 | 0.4 | 720 |  |  | 
2 | COc1cc(Nc2ncc(Br)c(Nc3ccc4nc(C5CC5)ccc4c3P(C)(C)=O)n2)c(C2CC2)cc1N1CCOCC1 [Compound J-004, (6-((5-Bromo-2-((2-cyclopropyl-5-methoxy-4-morpholinylphenyl)amino)pyrimidin-4-yl)amino)-2-cyclopropylquinoline-5-yl)dimethylphosphine oxide] | 283 | 0.7 | 380 |  |  | 
3 | CCc1cc(Nc2ncc(Br)c(Nc3ccc4nc(-c5cnn(C)c5)ccc4c3P(C)(C)=O)n2)c(OC)cc1N1CCC(N2CCN(C)CC2)CC1 [Compound J-017, (6-((5-Bromo-2-((5-ethyl-2-methoxy-4-(4-(4-methylpiperazin-1-yl)piperidin-1-yl)phenyl)amino)pyrimidin-4-yl)amino)-2(1-methyl-1H-pyrazol-4-yl)quinolin-5-yl)dimethylphosphine oxide] | 18.4 | 0.3 | 246 |  |  | 
4 | COc1cc(Nc2ncc(Br)c(Nc3ccc4nc(C5CC5)ccc4c3P(C)(C)=O)n2)c(C#N)cc1N1CCC(N2CCN(C)CC2)CC1 [Compound J-025, 2-((5-Bromo-4-((2-cyclopropyl-5-(dimethylphosphineoxide)quinolin-6-yl)amino)pyrimidin-2-yl)amino)-4-methoxy-5-(4-(4-methylpiperazin-1-yl)piperidin-1-yl)benzonitrile] | 2310 | 43 | > 3000 |  |  | 
5 | COc1cc(N(C)CCN(C)C)c(-c2cnn(C)c2)cc1Nc1ncc(Br)c(Nc2ccc3nc(C4CC4)ccc3c2P(C)(C)=O)n1 [Compound J-062, (6-((5-Bromo-2-((4-((2-(dimethylamino)ethyl)(methyl)amino)-2-methoxy-5-(1-methyl-1H-pyrazol-4-yl)phenyl)amino)pyrimidin-4-yl)amino)-2-cyclopropylquinolin-5-yl)dimethylphosphine oxide] |  |  |  | 46.2 | 1.4 | 157
6 | COc1cc(N2CCC(N3CCN(C)CC3)CC2)c(-c2ccn(C)c2)cc1Nc1ncc(Br)c(Nc2ccc3nc(C4CC4)ccc3c2P(C)(C)=O)n1 [Compound J-064, (6-((5-Bromo-2-((2-methoxy-5-(1-methyl-1H-pyrrol-3-yl)-4-(4-(4-methylpiperazine-1-yl)piperidin-1-yl)phenyl)amino)pyrimidin-4-yl)amino)-2-cyclopropylquinolin-5-yl)dimethylphosphine oxide] |  |  |  | 14.6 | 1.1 | 128
7 | COc1cc(N2CCC(N3CCN(C)CC3)CC2)c(-c2cnn(C)c2)cc1Nc1ncc(F)c(Nc2ccc3nc(C4CC4)ccc3c2P(C)(C)=O)n1 [Compound J-065] |  |  |  | 73 | 13 | 425
8 | COc1cc(N2CCC(N3CCN(C)CC3)CC2)c(-c2cnn(C(F)F)c2)cc1Nc1ncc(Br)c(Nc2ccc3nc(C4CC4)ccc3c2P(C)(C)=O)n1 [Compound J-067, (6-((5-bromo-2-((5-(1-(difluoromethyl)-1H-pyrazol-4-yl)-2-methoxy-4-(4-(4-methylpiperazin-1-yl)piperidin-1-yl)phenyl)amino)pyrimidin-4-yl)amino)-2-cyclopropylquinolin-5-yl)dimethylphosphine oxide] |  |  |  | 37.3 | 2.4 | 632
9 | COc1cc(N2CCC(N3CCN(C)CC3)CC2)c(-c2cnn(C)c2)cc1Nc1ncc(Br)c(Nc2ccc3nc(C4CC4)ccc3c2P(C)(C)=O)n1 [Compound J-068, (6-((5-Bromo-2-((2-methoxy-5-(1-methyl-1H-pyrazol-4-yl)-4-(4-(4-methylpiperazine-1-yl)piperidin-1-yl)phenyl)amino)pyrimidin-4-yl)amino)-2-cyclopropylquinolin-5-yl)dimethylphosphine oxide] |  |  |  | 33.2 | 1 | 201

Now from value to compound:

Row | IC50 (EGFR WT) [nM] | IC50 (EGFR Δ19del/T790M/C797S) [nM] | IC50 (IGF1R) [nM] | GI50 (Ba/F3 EGFR WT) [nM] | GI50 (Ba/F3-Δ19del/T790M/C797S) [nM] | IC50 [1] [nM] | Structure (SMILES)
10 | 714 | 3.5 | 437 |  |  |  | COc1cc(Nc2ncc(Br)c(Nc3ccc4nc(C5CC5)ccc4c3P(C)(C)=O)n2)cc(C)c1N1CCOCC1 [Compound J-006, (6-((5-Bromo-2-((3-methoxy-5-methyl-4-morpholinylphenyl)amino)pyrimidin-4-yl)amino)-2-cyclopropylquinoline-5-yl)dimethylphosphine oxide]
11 | 16 | 0.33 | 222 |  |  |  | COc1cc(N2CCC(N3CCN(C)CC3)CC2)c(F)cc1Nc1ncc(Br)c(Nc2ccc3nc(C4CC4)ccc3c2P(C)(C)=O)n1 [Compound J-019, (6-((5-Bromo-2-((5-fluoro-2-methoxy-4-(4-(4-methylpiperazin-1-yl)piperidin-1-yl)phenyl)amino)pyrimidin-4-yl)amino)-2-cyclopropylquinolin-5-yl)dimethylphosphine oxide]
12 | > 3000 | 36 | > 3000 |  |  |  | COc1cc(Nc2ncc(Br)c(Nc3ccc4nc(C5CC5)ccc4c3P(C)(C)=O)n2)c(C2CCOCC2)cc1N1CCC(N2CCN(C)CC2)CC1 [Compound J-026, (6-((5-Bromo-2-((5-methoxy-4-(4-(4-methylpiperazin-1-yl)piperidin-1-yl)-2-(tetrahydro-2H-pyran-4-yl)phenyl)amino)pyrimidin-4-yl)amino)-2-cyclopropylquinolin-5-yl)dimethylphosphine oxide]
13 | 138 |  | 210 |  |  |  | COc1cc(N2CCN(C3CCCC3)CC2)c(C)cc1Nc1ncc(Br)c(Nc2ccc3nc(C4CC4)ccc3c2P(C)(C)=O)n1 [Compound J-037, (6-((5-Bromo-2-((4-(4-cyclopentylpiperazin-1-yl)-2-methoxy-5-methylphenyl)amino)pyrimidin-4-yl)amino)-2-cyclopropylquinolin-5-yl)dimethylphosphine oxide]
14 |  |  |  | 77.9 | 4.4 | 259 | COc1cc(N2CCN(C3CCN(C)CC3)CC2)c(-c2cnn(C)c2)cc1Nc1ncc(Br)c(Nc2ccc3nc(C4CC4)ccc3c2P(C)(C)=O)n1 [Compound J-066, (6-((5-Bromo-2-((2-methoxy-5-(1-methyl-1H-pyrazol-4-yl)-4-(4-(1-methylpiperidine-4-yl)piperazin-1-yl)phenyl)amino)pyrimidin-4-yl)amino)-2-cyclopropylquinolin-5-yl)dimethylphosphine oxide]
